Test results: a melting point compilation (Tetko et al.; mined from patent text by program, amines drawn as free bases though some values may be those of a salt)

| SMILES | melting point [°C] |
| --- | --- |
| BrCCCCCCCCCCCCCCCCCCCCCCCCBr | 105 |
| CN1CCN(c2c(F)cc3c(=O)c(C(=O)O)cn4c3c2N(C)CC4)CC1 | 266 to 269 |
| COc1ccc(-c2cccc(COCCc3cccc(NS(=O)(=O)C(F)(F)F)c3)c2)cc1 | 88 to 90 |
| [N-]=[N+]=NS(=O)(=O)c1cc(C(=O)O)cc(S(=O)(=O)N=[N+]=[N-])c1 | 181 to 183 |
| COC(=O)/C=C/c1nccs1 | 75 to 75.5 |
| C=C1CC(COc2cc(=O)oc3ccccc23)(c2ccccc2)OC1=O (stereo not drawn) | 212 to 214 |
| CCOc1cc(C(=O)c2c(-c3ccc(OC)cc3)sc3cc(OC)ccc23)cc(OCC)c1OCC | 108 to 110 |
| N#Cc1nn(-c2c(Cl)cc(C(F)(F)F)cc2Cl)c(C=O)c1SC(F)(F)F | 90 |
| CCCn1c(=O)c2[nH]c(-c3ccc(C(=O)N(CC)CC)o3)nc2n(CCC)c1=O | 247 to 250 |
| CC(=O)N(O)C(C)c1cn(C)c2ccccc12 (stereo not drawn) | 106 to 108 |
| CCNC(=O)c1cc(N(C)C)ccc1[Si](C)(C)C | 141 to 143 |
| Cc1ccccc1C(=O)Nc1ccc(C(=O)N2c3ccccc3CCc3ccccc32)cc1 | 112 to 118 |
| CCOC(=O)c1cnoc1-c1ccc(F)c(Cl)c1 | 106 to 107 |
| CC(C)(C)OC(=O)NCc1nc2c(C(F)(F)F)cccc2c(O)c1C(=O)Nc1nccs1 | 238 |
| N#CCc1cc(Cl)cc(Cc2nc3c(F)c(F)cc(F)c3s2)c1 | 114 to 117 |
| N#CNc1ccccc1-c1ccc(F)cc1 | 95 to 96 |
| COc1ccc(C(=O)c2ccc(Sc3ccc(Cl)cc3)cc2)cc1OC | 118 to 120 |
| C=CCOc1cc(NCC)c(C(C)=O)cc1C(C)=O | 82 to 83 |
| CCOC(=O)C(=O)c1csc(NC(=O)CCl)n1 | 178 to 180 |
| COCCONS(=O)(=O)c1ccccc1 | 110 to 112 |
| CCCCCN(CCC12CC3CC(CC(C3)C1)C2)C(=O)NCCNc1ccncc1 | 134 |
| COC(=O)c1ccccc1C=NC(C)(C(N)=O)C(C)C (stereo not drawn) | 79 to 80.5 |
| Fc1ccccc1Cn1c(-c2ccc3c(c2)OCO3)nc2ccccc21 | 149 to 150 |
| Cc1cccc(-c2n[nH]cc2-c2ccc(F)c(-c3c[nH]c(CCO)n3)c2)n1 | 219 to 220 |
| O=S(=O)(/C=C/c1ccc(F)cc1)CS(=O)(=O)/C=C/c1ccc(F)cc1 | 183 to 185 |
| COc1ccc(N2CCN(c3c(C)c(C(C)O)c4c(c3C)C(c3ccc(C)cc3)C(C)(C)O4)CC2)cc1 (stereo not drawn) | 149 to 151 |

| SMILES | melting point [°C] |
| --- | --- |
| Nc1[nH]c(=S)nc2nc[nH]c12 | 196 to 198 |
| COc1ccc([C@@H](O)[C@@H](N)Cc2ccc(C(F)(F)F)cc2)cc1 (racemic) | 116 to 117 |
| CNc1cccc(C(=O)O)c1C | 165 to 167 |
| CC(C)COc1ccc(C(=O)N/C(=C\c2ccc(C(C)C)cc2)C(=O)NCCO)cc1 | 178 to 180 |
| CCCCCCCCNC(=O)Cc1c(C)cc(C(C)(C)C)c(O)c1C | 101 to 104 |
| OC1(OCc2ccccc2)C(Cl)=C(Cl)C=CC1OCc1ccccc1 (stereo not drawn) | 74 to 75 |
| CCOC(=O)C1=C(C)NC(COC(=O)COc2ccc(Cl)cc2)=C(C(=O)OCC)C1c1ccccc1[N+](=O)[O-] (stereo not drawn) | 86 to 88 |
| CCCCCC(CC(=O)Nc1cc(C(N)=O)ccc1C(C)(C)C)c1ccc(OCCC(N)S(C)(=O)=O)cc1OC (stereo not drawn) | 77 to 79 |
| Cc1ncc(N2N=C(c3ccc([N+](=O)[O-])cc3)c3cc4c(cc3CC2C)OCO4)o1 (stereo not drawn) | 203 to 205 |
| COc1cc(I)c(F)cc1Cl | 90 to 94 |
| CC(C)OC1OC(=O)CC(C)(C)C1O (stereo not drawn) | 50 |
| Cc1c(C)c(OCC(=O)N2CCN(c3ccc(N=C(N)c4cccs4)cc3)CC2)c(C)c(C)c1O | 210 to 212 |
| O=C1c2ccccc2C(=O)N1C(Cc1ccccc1)CP(=O)(O)O (stereo not drawn) | 127 to 130 |
| COc1c2c(c(OC(C)=O)c3c1C(=O)c1c(cc(OC(C)=O)c(C)c1OC(C)=O)C3=O)-c1c(cc3cnn(-c4ccccc4)c(=O)c3c1OC(C)=O)CC2 | 273 |
| Fc1ccc(-c2nc(SC(F)(F)C(F)F)[nH]c2-c2cccs2)cc1 | 164 to 168 |
| CN(C)CCOc1ccc(CNC(=O)c2ccccc2N)cc1 | 104 to 105 |
| COc1ccc(CNc2nc(N3CCC[C@H]3CO)ncc2C(=O)Nc2cncnc2)cc1Cl | 192 to 195 |
| CC(C)Cn1cnc2cnc3cccnc3c21 | 82 to 84 |
| Cc1nc(N)sc1-c1cccnc1 | 190 to 191 |
| CC(=O)N1c2ccccc2Sc2cc(O)c3ccccc3c21 | 230 |
| Fc1cccc(NC2CN([C@H]3CC[C@@H](c4c[nH]c5ccc(F)cc54)CC3)C2)c1 | 67 to 70 |
| CNC(=O)CNC(=O)CN1CCCC1=O | 139 to 140 |
| CC(C)n1nc(-c2sc(C(=O)N3CCN(C)CC3)nc2-c2ccccc2)ccc1=O | 155 to 156 |
| Nc1ccc(S)c(C(F)(F)F)c1 | 35 to 36.5 |
| O=[N+]([O-])c1ccccc1Oc1cc(Cl)cc(Cl)c1 | 78 to 80 |
| O=C(O)c1cccc(C(=O)NCc2ccc(F)c(-c3cccc(CO)c3)c2)c1 | 169 to 171 |

| SMILES | melting point [°C] |
| --- | --- |
| CCOc1ccnc(F)c1NC(=O)OC(C)(C)C | 130 to 131 |
| NC(=O)c1cc2c(Oc3cccc(C(F)(F)F)c3)cncc2s1 | 175 to 176 |
| Cc1cn(Cc2ccccc2)c(=O)n(CC2(CO)CC2)c1=O | 81.5 |
| N#CN=C(Nc1ccccc1Br)Nc1ccc(C#N)c(Br)c1O | 142 |
| CN1C(=O)C(c2cccc(-c3cccnc3F)c2)(c2cnn(CCF)c2)N=C1N (stereo not drawn) | 195 to 197 |
| CCCc1c(OCCCCCCC#N)ccc(C(C)=O)c1O | 64 to 66 |
| Cc1cc(N)cc(C)c1NC(=O)CN1CCN(CCCC(c2ccc(F)cc2)c2ccc(F)cc2)CC1CO (stereo not drawn) | 85.2 |
| O=C(O)CN1C(=O)C(=Cc2ccc(OCCc3ccc(F)cc3)c(OCc3ccccc3)c2)SC1=S | 221 |
| CCCCCN(C)C(=O)c1ccc(Cl)nn1 | 98 to 101 |
| Cn1nc2c(-c3ccc(Cl)cc3Cl)cccc2c1-n1ccnc1 | 63 to 89 |
| COc1ccc(C(Cl)=C(C=O)c2ccc(OC)c(OC)c2)cc1OC | 183 to 184 |
| COC(=O)C(=CNc1ccc(F)cc1)C(=O)C=Cc1ccc(NC(C)=O)cc1 | 161 to 164 |
| CC(C)CNC(=O)NCCCl | 79.5 |
| Cc1ccc(O)c(F)n1 | 133 to 135 |
| O=C(C#Cc1ccc(Cl)cc1)Nc1ccc2c(ccn2CCN2CCCC2)c1 | 127 to 129 |
| O=CNCCN1CCC(Nc2nc3ccccc3n2Cc2ccc(F)cc2)CC1 | 153 |
| CCCCCCc1cc2c(cc1C(=O)O)C(C)(C)CCC2(C)C | 98 to 99 |
| Clc1c(Br)cncc1Br | 101 to 103 |
| CC1(c2ccccc2)SC(=S)N(Nc2ccccc2)C1=N (stereo not drawn) | 118 to 119 |
| CO/C=C(/C(=O)OC)c1ccccc1COc1cccc(Br)n1 | 64 to 65 |
| CCCCc1c(/C=C/C(=O)O)ccc2c(OC)cccc12 | 202 to 204 |
| COc1cc(F)c(C2NCCc3ccsc32)cc1OC (stereo not drawn) | 108 to 111 |
| CCOC(=O)c1[nH]cnc1Cc1ccccc1 | 149 |
| Cc1[nH]c2cccc(/C=C/C(=O)OCc3ccccc3)c2c1Cc1cccnc1 | 180 to 182 |
| Nc1cccc(/C=C/c2nc(C3CCCC3)cs2)c1 | 59 to 61 |
| C#CCOc1c(OC)cc(/C=C/C(=O)/C=C/c2cc(OC)c(OCC#C)c(OC)c2)cc1OC | 162 to 164 |

| SMILES | melting point [°C] |
| --- | --- |
| CC(=O)n1nc(-c2ccncc2)nc1-c1ccncc1 | 156 to 158 |
| CCc1ccc([N+]([O-])=Cc2ccc(C)cc2)cc1 | 97 to 99 |
| CC#CC(O)(C(=O)OC)c1ccccc1 (stereo not drawn) | 64 to 65 |
| COc1cc2c(cc1OC)[C@@H]1CCCC[C@@H]1N=C2c1ccc(N)cc1 (racemic) | 160 to 161 |
| O=C(O)c1ccc(-c2ccccn2)cc1 | 232 to 234 |
| O=C(Nc1cc2nc(-c3ccc(C(=O)C45CC6CC(CC(C6)C4)C5)cc3)[nH]c2cn1)C12CC3CC(CC(C3)C1)C2 | 265 |
| NC1=NS(=O)N=C1NCCCN(Cc1cccc(F)c1)c1ccccn1 (stereo not drawn) | 160 to 162 |
| CCc1n[nH]c(CC)c1Oc1cccc(C#N)c1 | 81 to 84 |
| CCC1(O)CC(=O)OCc2c1cc1n(c2=O)Cc2cc3c4c(c(F)cc3nc2-1)OCN(Cc1ccccc1)C4 (stereo not drawn) | > 250 |
| CC(=O)N1CCC2(CC1)CC(=O)c1c(O)cccc1O2 | 114 to 116 |
| O=C(NCc1cccc(C(F)(F)F)c1)c1ccc2n1Cc1ccccc1N(C(=O)COc1ccc(Cl)cc1)C2 | 143 to 145 |
| COC1=NC(=O)N(C)S(=O)(=O)N1 | 195 to 199 |
| Cc1ccc(N2CCN(c3c(C)c(C)c4c(c3C)CC(C)(C)O4)CC2)cc1C | 137 to 139 |
| Cc1cccc(NC(=O)NC(CCC(=O)O)C(=O)N(CC(=O)OC(C)(C)C)c2ccccc2)c1 (racemic) | 191 |
| CC(=O)N1CCN(c2cc3nc(C(C)(C)C)sc3cc2[N+](=O)[O-])CC1 | 166 to 168 |
| COC(=O)c1ccc(C(=O)Nc2cc3c4c(c2)CCCC4CCC3)s1 | 221 to 222 |
| O=C(Nc1cccc2c1C(=O)c1c-2n[nH]c1[C@H]1CC[C@H](C(=O)N2CCNCC2)CC1)NN1CCOCC1 | 247 to 248 |
| COc1cc2ncnc(N3CCN(C(=O)NCCc4ccc(Br)cc4)CC3)c2cc1OC | 174 to 175 |
| COc1ccc(-c2cnc[nH]c2=O)cc1OC | 205 to 206 |
| CC(O)Cn1cnc2c(N)nc3ccccc3c21 (stereo not drawn) | 216 to 221 |
| CON(C)C(=O)c1ccc2nc(Cl)nc(-c3cccc(Cl)c3)c2c1 | 110 |
| CN1C(=O)CN=C(C2CCCCC2)c2ccccc21 | 98 to 100 |
| O=C(CC(O)c1ccncc1)c1ccccc1O (stereo not drawn) | 150 |
| N#Cc1c(N2CCN(C(=O)c3cccs3)CC2)c2cc(Cl)cnc2n(Cc2cccc(F)c2)c1=O | 204 |
| CC(C)c1cc2nc(N)sc2cc1SC1=C(O)C[C@@](CCc2ccccc2)(C(C)C)OC1=O | 197 to 199 |
